According to patent US20250163074A1, “CDK Inhibitors And Their Use As Pharmaceuticals” (Prelude Therapeutics Incorporated, priority 2020, published 2025):

Columns and labels:
[1] = biological target: CDK4/Cyclin D1 (Homo sapiens (Human), UniProt P11802); experiment: CDK4/CyclinD1 enzymatic activity assay (TR-FRET); type: biochemical; conditions: CDK4/CyclinD1 1 nM, ATP 2 mM, read-out: CDK4_D1 IC50
How it was run: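 Insect-cell CDK4/Cyclin D1 (1 nM) with ULight-4E-BP1 (100 nM) and 2 mM ATP in HEPES pH 7.4 buffer, preincubated 20 min with compound (9-dose, 3-fold dilutions); 10 mM MgCl2 started the reaction, run 60 min at 37 °C. EDTA/Eu-anti-phospho-4E-BP1 TR-FRET detection; IC50 from 4-parameter Hill fit.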

[2] = biological target: CDK6/Cyclin D1 (Homo sapiens (Human), UniProt Q00534); experiment: CDK6/CyclinD1 enzymatic activity assay (TR-FRET); type: biochemical; conditions: CDK6/Cyclin D1 1 nM, ATP 250 μM, read-out: CDK6_D1 IC50
Chain of CDK6/Cyclin D1 (Q00534 whole entry): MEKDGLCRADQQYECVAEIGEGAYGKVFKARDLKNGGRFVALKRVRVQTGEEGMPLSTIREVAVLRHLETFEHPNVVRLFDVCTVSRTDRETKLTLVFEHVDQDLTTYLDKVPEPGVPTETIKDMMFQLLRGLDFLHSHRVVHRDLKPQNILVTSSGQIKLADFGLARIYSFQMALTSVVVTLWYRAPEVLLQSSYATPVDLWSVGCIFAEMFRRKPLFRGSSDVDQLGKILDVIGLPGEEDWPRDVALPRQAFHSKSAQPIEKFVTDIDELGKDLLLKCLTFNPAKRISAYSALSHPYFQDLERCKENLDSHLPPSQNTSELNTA
Chain of CDK6/Cyclin D1 (P24385 whole entry partner): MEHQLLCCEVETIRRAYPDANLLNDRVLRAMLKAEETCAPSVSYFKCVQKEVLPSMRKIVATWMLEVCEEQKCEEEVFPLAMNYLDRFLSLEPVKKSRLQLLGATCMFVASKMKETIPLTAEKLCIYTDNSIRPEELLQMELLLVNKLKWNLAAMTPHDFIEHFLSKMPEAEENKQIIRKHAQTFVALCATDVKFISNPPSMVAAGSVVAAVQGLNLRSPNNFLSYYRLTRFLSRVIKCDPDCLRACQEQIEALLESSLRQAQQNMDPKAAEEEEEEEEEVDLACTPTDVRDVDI
Procedure: CDK6/CyclinD1 Enzymatic Activity Assay
The inhibitory activity of compounds was evaluated in vitro using TR-FRET assay with white 384-well low volume microplate (Greiner Bio-One). CDK6/Cyclin D1 catalyzed phosphorylation of peptide in the presence and absence of compounds was measured and used in IC50 determination. Recombinant protein complex CDK6/Cyclin D1, expressed from insect cell, was purchased from ProQinase. Testing compounds were dissolved in DMSO at 0.1 mM and tested in 9-dose IC50 mode. The reaction mixture was prepared by mixing CDK6/Cyclin D1 (1 nM final), ULight-4E-BP1 (100 nM final, Perkinelmer, TRF0128-D), and ATP (250 μM final) in assay buffer (20 mM of HEPES pH 7.4, 1 mM of EGTA, 0.05% BSA, 0.005% Tween 20, and 1 mM TCEP). The compound of interest in DMSO was added to each well in 3-fold serial dilution by dispenser (TECAN D300E). After 20 minutes preincubation at room temperature, 0.1 μL MgCl2 (10 mM final) was added to initiate the reaction. Following a 60 minutes incubation at 37° C., the reaction was stopped by addition of 2 μL of quenching buffer consisting of Lance detection buffer (Perkinelmer CR97-100C), 2 nM LANCE Ultra Europium-anti-P-4E-BP1 (Perkinelmer, TRF0216-D), 10 mM EDTA, and incubate at room temperature for additional 60 minutes in dark. The reaction signal was measured by Envision multimode plate reader (PerkinElmer, 2102-0010). IC50 values were determined by fitting the data to the standard 4 parameters with Hill Slope using GraphPad Prism software.

[3] = test system: MCF7 adenocarcinoma cell line; experiment: Cell proliferation studies in MCF7 cells (ATP-Lite); type: cell-based; conditions: Homo sapiens, 240 h, 10 days incubation, cell viability by ATP-Lite luminescence, read-out: PROLIFERATION_CTG_MCF7 IC50
How it was run: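 MCF7 cells, seeded at 100 or 200 cells/well, were exposed for 10 days at 37 °C to a 9-point, 3-fold dilution series in quadruplicate, with media exchange and re-dosing on day 5. Viability was read by ATP-Lite luminescence, normalized to background and DMSO, and fitted for IC50.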

[4] = Brain-to-plasma ratio determination in Sprague-Dawley rats; type: in vivo; conditions: rat, male Sprague-Dawley rats, four hours after a single oral dose (3, 4, 5, or 10 mg/kg)
Procedure: Example B: Brain-to-Plasma Ratio Determination in Sprague-Dawley Rats
The brain-to-plasma ratio (Kp) was determined in male Sprague-Dawley rats (7-9 weeks old) four hours after a single oral dose. Rats were acclimated and given free access to standard rodent chow and water throughout the entire study. Test articles were formulated as a solution at 0.3, 0.4, 0.5, or 1.0 mg/mL in a vehicle comprised of 10:15:75 (v:v:v) dimethylacetamide (DMA):Solutol HS15:water and delivered orally at a rate of 10 mL/kg to three rats to achieve final doses of 3, 4, 5, or 10 mg/kg, respectively. At 4 hours post-dose, blood samples were collected via jugular vein cannula into tubes containing K2EDTA as the anticoagulant and stored on ice. Blood samples were then centrifuged at 4° C. at 6000 rpm for 5 minutes, and the resulting plasma was placed into tubes and stored frozen at −80° C. until analysis. Whole brain samples were also collected at 4 hours post-dose. The weight of each brain was measured and recorded, and samples were immediately stored on dry ice. Brain samples were then transferred to storage at −80° C. until analysis.
Prior to analysis, brain samples were combined with water (4 mL/1 gram of brain) and homogenized. Prior to injection, plasma and brain homogenate samples and standards were prepared for analysis by precipitation with acetonitrile or 1:1 (v:v) methanol:acetonitrile. Samples were then thoroughly mixed, centrifuged at 4000 rpm for 15 minutes, and the resulting supernatant was transferred for analysis. Test article concentrations in plasma and brain homogenate were then determined by LC-MS/MS and quantified against calibration standards prepared to known concentrations in matched blank (analyte-free) biological matrix. The Kp was then determined by dividing the dilution-corrected brain concentration by the plasma concentration from each rat. A brain density of 1 gram/mL was assumed for all calculations.

Chain of CDK4/Cyclin D1 (P11802 whole entry): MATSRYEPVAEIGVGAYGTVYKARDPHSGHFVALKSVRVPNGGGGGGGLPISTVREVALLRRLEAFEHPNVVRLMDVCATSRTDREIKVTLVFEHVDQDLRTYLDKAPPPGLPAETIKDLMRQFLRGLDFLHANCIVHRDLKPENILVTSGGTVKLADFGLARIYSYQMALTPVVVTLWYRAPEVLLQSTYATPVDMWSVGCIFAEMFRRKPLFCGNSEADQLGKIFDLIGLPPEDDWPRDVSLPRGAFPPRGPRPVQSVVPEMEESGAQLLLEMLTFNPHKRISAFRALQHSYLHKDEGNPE
Chain of CDK4/Cyclin D1 (P24385 whole entry partner): as the sequence (P24385 whole entry partner) above

| SMILES | IC50 [1] [nM] | IC50 [2] [nM] | IC50 [3] [nM] | Kp at 4 h [4] |
| --- | --- | --- | --- | --- |
| Cc1c(-c2nc(Nc3ccc(C4CCN(C)CC4)cn3)ncc2F)sc2c1C(=O)N(C)C21CC1 [Example 6, 2′-(5-Fluoro-2-((5-(1-methylpiperidin-4-yl)pyridin-2-yl)amino)pyrimidin-4-yl)-3′,5′-dimethylspiro[cyclopropane-1,6′-thieno[2,3-c]pyrrol]-4′(5′H)-one] | ≤ 20 | ≤ 20 | 20 to 200 | 1 to 3 |
| CCN1C(=O)c2c(sc(-c3nc(Nc4ccc(C5CCN(C)CC5)cn4)ncc3F)c2C)C12CC2 [Example 7, 5′-Ethyl-2′-(5-fluoro-2-((5-(1-methylpiperidin-4-yl)pyridin-2-yl)amino)pyrimidin-4-yl)-3′-methylspiro[cyclopropane-1,6′-thieno[2,3-c]pyrrol]-4′(5′H)-one] | ≤ 20 | ≤ 20 | 20 to 200 | 1 to 3 |
| CCN1CC2(C1)CN(c1ccc(Nc3ncc(F)c(-c4sc5c(c4C)C(=O)N(C)C54CC4)n3)nc1)C2 [Example 12, 2′-(2-((5-(6-Ethyl-2,6-diazaspiro[3.3]heptan-2-yl)pyridin-2-yl)amino)-5-fluoropyrimidin-4-yl)-3′,5′-dimethylspiro[cyclopropane-1,6′-thieno[2,3-c]pyrrol]-4′(5′H)-one] | ≤ 20 | ≤ 20 | ≤ 20 | < 1 |
| Cc1c(-c2nc(Nc3ccc(N4CC5(CCN(C)C5)C4)cn3)ncc2F)sc2c1C(=O)N(C)C21CC1 [Example 14, 2′-(5-Fluoro-2-((5-(6-methyl-2,6-diazaspiro[3.4]octan-2-yl)pyridin-2-yl)amino)pyrimidin-4-yl)-3′,5′-di methyl spiro[cyclopropane-1,6′-thieno[2,3-c]pyrrol]-4′(5′H)-one] | ≤ 20 | – | ≤ 20 | 1 to 3 |
| Cc1c(-c2nc(Nc3ccc(C4CCCN(C)C4)cn3)ncc2F)sc2c1C(=O)N(C)C21CC1 (stereo not shown) [Example 15, 2′-(5-Fluoro-2-((5-(1-methylpiperidin-3-yl)pyridin-2-yl)amino)pyrimidin-4-yl)-3′,5′-dimethylspiro[cyclopropane-1,6′-thieno[2,3-c]pyrrol]-4′(5′H)-one] | ≤ 20 | – | 20 to 200 | 1 to 3 |
| CCN1C(=O)c2cc(-c3nc(Nc4ccc(C5CCCN(C)C5)cn4)ncc3C)sc2C12CC2 (stereo not shown) [Example 18, 5′-Ethyl-2′-[5-methyl-2-[[5-(1-methylpiperidin-3-yl)pyridin-2-yl]amino]pyrimidin-4-yl]spiro[cyclopropane-1,6′-thieno[2,3-c]pyrrole]-4′-one] | ≤ 20 | – | 20 to 200 | 1 to 3 |
| CN1CCC(c2ccc(Nc3ncc(F)c(-c4cc5c(n4C)C4(CCCC4)CN(C)C5=O)n3)nc2)CC1 [Example 74, 2′-(5-Fluoro-2-((5-(1-methylpiperidin-4-yl)pyridin-2-yl)amino)pyrimidin-4-yl)-1′,5′-dimethyl-5′,6′-dihydrospiro[cyclopentane-1,7′-pyrrolo[3,2-c]pyridin]-4′(1′H)-one] | ≤ 20 | 20 to 200 | 20 to 200 | – |
| CN1CCC(c2ccc(Nc3ncc(F)c(-c4cc5c(s4)C4(CCOCC4)CN(C)C5=O)n3)nc2)CC1 [Example 77, 2′-(5-Fluoro-2-((5-(1-methylpiperidin-4-yl)pyridin-2-yl)amino)pyrimidin-4-yl)-5′-methyl-2,3,5,5′,6,6′-hexahydro-4′H-spiro[pyran-4,7′-thieno[3,2-c]pyridin]-4′-one] | ≤ 20 | 20 to 200 | 20 to 200 | – |
| Cc1cnc(Nc2ccc(C3CCN(C)CC3)cn2)nc1-c1cc2c(s1)C1(CC1)N(C)C2=O [Example 80, 5′-Methyl-2′-(5-methyl-2-((5-(1-methylpiperidin-4-yl)pyridin-2-yl)amino)pyrimidin-4-yl)spiro[cyclopropane-1,6′-thieno[2,3-c]pyrrol]-4′(5′H)-one] | ≤ 20 | 20 to 200 | ≤ 20 | – |

The next lines start with the values.

| IC50 [1] [nM] | IC50 [2] [nM] | IC50 [3] [nM] | Kp at 4 h [4] | SMILES |
| --- | --- | --- | --- | --- |
| ≤ 20 | ≤ 20 | 20 to 200 | 1 to 3 | CCN1CC2(C1)CN(c1ccc(Nc3ncc(F)c(-c4cc5c(s4)C4(CCCC4)CN(C)C5=O)n3)nc1)C2 [Example 1, 2′-(2-((5-(6-Ethyl-2,6-diazaspiro[3.3]heptan-2-yl)pyridin-2-yl)amino)-5-fluoropyrimidin-4-yl)-5′-methyl-5′,6′-dihydro-4′H-spiro[cyclopentane-1,7′-thieno[3,2-c]pyridin]-4′-one] |
| ≤ 20 | ≤ 20 | 20 to 200 | 1 to 3 | CN1CCC(c2ccc(Nc3ncc(F)c(-c4cc5c(s4)C4(CCCC4)CN(C)C5=O)n3)nc2)CC1 [Example 2, 2′-(5-Fluoro-2-((5-(1-methylpiperidin-4-yl)pyridin-2-yl)amino)pyrimidin-4-yl)-5′-methyl-5′,6′-dihydro-4′H-spiro[cyclopentane-1,7′-thieno[3,2-c]pyridin]-4′-one] |
| ≤ 20 | ≤ 20 | 20 to 200 | ≥ 3 | CCN1CCN(c2ccc(Nc3ncc(F)c(-c4cc5c(s4)C4(CCCC4)CN(C)C5=O)n3)nc2)CC1 [Example 3, 2′-(2-((5-(4-Ethylpiperazin-1-yl)pyridin-2-yl)amino)-5-fluoropyrimidin-4-yl)-5′-methyl-5′,6′-dihydro-4′H-spiro[cyclopentane-1,7′-thieno[3,2-c]pyridin]-4′-one] |
| ≤ 20 | 20 to 200 | 20 to 200 | 1 to 3 | CCN1CC2(C1)CN(c1ccc(Nc3ncc(F)c(-c4cc5c(s4)C4(CCCCC4)CN(C)C5=O)n3)nc1)C2 [Example 4, 2′-(2-((5-(6-Ethyl-2,6-diazaspiro[3.3]heptan-2-yl)pyridin-2-yl)amino)-5-fluoropyrimidin-4-yl)-5′-methyl-5′,6′-dihydro-4′H-spiro[cyclohexane-1,7′-thieno[3,2-c]pyridin]-4′-one] |
| ≤ 20 | ≤ 20 | 20 to 200 | – | CCN1CC2(C1)CN(c1ccc(Nc3ncc(F)c(-c4cc5c(s4)C4(CCCC4)CN(C)C5=O)n3)nn1)C2 [Example 82, 2-[2-[[6-(6-Ethyl-2,6-diazaspiro[3.3]heptan-2-yl)pyridazin-3-yl]amino]-5-fluoropyrimidin-4-yl]-5-methylspiro[6H-thieno[3,2-c]pyridine-7,1′-cyclopentane]-4-one] |
| ≤ 20 | 20 to 200 | 20 to 200 | – | CCN1CCN(c2ccc(Nc3ncc(F)c(-c4cc5c(s4)C4(CCCC4)CN(C)C5=O)n3)nc2)C(=O)C1 [Example 86, 2-[2-[[5-(4-Ethyl-2-oxopiperazin-1-yl)pyridin-2-yl]amino]-5-fluoropyrimidin-4-yl]-5-methylspiro[6H-thieno[3,2-c]pyridine-7,1′-cyclopentane]-4-one] |
